Data from US20220062233A1 (The Board of Trustees of the Leland Stanford Junior …, priority 2018, published 2022).

What was measured:
mutant HTT = experiment: Mutant HTT assay in lymphoblastoid cells (LBC), Western blot; assay type: cell-based, human; conditions: read-out: LBC IC20 (nM) mHTT, 3 days compound treatment
How it was run: (§1)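 HD patient lymphoblastoid cells (GM14044, 250 CAG repeats in mutant allele) treated with compound for 3 days. Lysates normalised by BCA, run on SDS-PAGE and immunoblotted: mutant HTT with anti-polyQ MW1, wild-type HTT with anti-Huntingtin antibody, TBP and tubulin also probed. Band intensities quantified by infrared imaging.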

mouse hepatocytes = experiment: In vitro metabolic stability in mouse hepatocytes; assay type: in vitro ADME
Method: A. In Vitro Metabolic Stability in Hepatocyte
A compound's metabolic stability was assessed using mouse hepatocytes incubated with pre-defined concentration of test articles over several incubation period. The extent of metabolism was calculated from the disappearance of the test compound measured by liquid chromatography mass spectrometry (LC-MS), compared to that of 0-min control. After incubation, quench solutions including internal standards were added and analyzed by LC/MS. The elimination rate constant and intrinsic clearance (CLhepatocyte) values were calculated by linear regression of the compound elimination over the duration of incubation, normalized to the cell number in the given volume of incubation medium.

[1] = molecular target: T1, interaction between Supt4h and NGN (subunit of Supt5h) (Homo sapiens, UniProt O00267+P63272); experiment: Split Gaussia luciferase complementation assay (M2-8 Luciferase); assay type: cell-based; conditions: M2-8 cells
T1 construct: expressed in transfected cells
How it was run: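 HEK293-derived M2-8 cells inducibly express Supt4h-Gluc1 and NGN-Gluc2 fragments (stabilizing mutations) on RheoSwitch ligand addition; ligand plus compound added 24 h after plating and left 24 h. Cells frozen, lysed with 10 μg/ml native coelenterazine, 1 h room temperature dark; complemented luciferase luminescence read.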

wild-type HTT = experiment: Wild-type HTT assay in lymphoblastoid cells (LBC), Western blot; assay type: cell-based, human; conditions: 3 days compound treatment, read-out: LBC IC20 (nM) wtHTT
How it was run: as §1

[2] = tested on: Lymphoblastoid cells (GM14044); experiment: LBC cell viability (Cell Titer-Glo); assay type: cell-based, human; conditions: at the concentration of IC20, 3-day compound treatment
Method: Cell viability was determined by Cell Titer-Glo reagent (Promega, PRG9243). After 3-day compound treatment, 15 μl of cell suspension was taken out from plate and incubated with 10 μl of CTG reagent. The values of reaction mixture were detected by Tecan.

M2-8 cells = experiment: M2-8 Cell viability Assay; assay type: cell-based; conditions: at the concentration of 1000 nM

| Compound | IC20 (mutant HTT) [nM] | Mouse HepStability (CLhepatocyte) (mouse hepatocytes) | IC50 [1] [µM] | IC20 (wild-type HTT) [nM] | LBC viability at IC20 [2] | M2-8 Cell viability (M2-8 cells) | elimination in in vitro hepatocyte stability assay (comparison) (mouse hepatocytes; compound #2 versus deuterated compound #42, FIG. 1A) |
| --- | --- | --- | --- | --- | --- | --- | --- |
| OCCOCc1ccc(CN[C@@H]2CCCc3c2[nH]c2ccc(Br)cc32)cc1 (single isomer, unassigned) [Compound 28] | < 100 | A (CLhepatocyte <10 μl/min/10^6cells) | ≤ 0.1 | > 1000 | * (cell viability is greater than 60% at the concentration of IC20) | + (cell viability is greater than 50% at the concentration of 1000 nM) | – |
| OCc1ccc(CNC2CCCc3c2[nH]c2ccc(Br)cc32)cc1 (stereo not shown) [Compound 1] | 101 to 300 | C (CLhepatocyte >30 μl/min/10^6cells) | ≤ 0.1 | > 1000 | * (cell viability is greater than 60% at the concentration of IC20) | + (cell viability is greater than 50% at the concentration of 1000 nM) | – |
| OCc1ccc(CN[C@@H]2CCCc3c2[nH]c2ccc(Br)cc32)cc1 [Compound 2, (R)-(4-(((6-bromo-2,3,4,9-tetrahydro-1H-carbazol-1-yl)amino)methyl)phenyl)methanol] | < 100 | C (CLhepatocyte >30 μl/min/10^6cells) | ≤ 0.1 | > 250 | * (cell viability is greater than 60% at the concentration of IC20) | + (cell viability is greater than 50% at the concentration of 1000 nM) | more rapidly eliminated |
| CC(C)(O)c1ccc(CN[C@@H]2CCCc3c2[nH]c2ccc(Br)cc32)cc1 [Compound 31, (R)-2-(4-(((6-bromo-2,3,4,9-tetrahydro-1H-carbazol-1-yl)amino)methyl)phenyl)propan-2-ol] | < 100 | A (CLhepatocyte <10 μl/min/10^6cells) | ≤ 0.1 | > 250 | * (cell viability is greater than 60% at the concentration of IC20) | + (cell viability is greater than 50% at the concentration of 1000 nM) | – |
| [2H]C([2H])(O)c1ccc(CN[C@@H]2CCCc3c2[nH]c2ccc(Br)cc32)cc1 [Compound 42, (R)-(4-(((6-bromo-2,3,4,9-tetrahydro-1H-carbazol-1-yl)amino)methyl)phenyl)methan-d2-ol] | < 100 | C (CLhepatocyte >30 μl/min/10^6cells) | ≤ 0.1 | > 1000 | * (cell viability is greater than 60% at the concentration of IC20) | + (cell viability is greater than 50% at the concentration of 1000 nM) | – |
| CS(=N)(=O)c1ccc(CN[C@@H]2CCCc3c2[nH]c2ccc(Br)cc32)cc1 (stereo partly drawn) [Compound 49, (4-((((R)-6-bromo-2,3,4,9-tetrahydro-1H-carbazol-1-yl)amino)methyl)phenyl)(imino)(methyl)-λ^6-sulfanone] | 101 to 300 | B (CLhepatocyte 10-30 μl/min/10^6cells) | ≤ 0.1 | > 500 | * (cell viability is greater than 60% at the concentration of IC20) | + (cell viability is greater than 50% at the concentration of 1000 nM) | – |
